Experimental data taken from US9839623B2, “Tricyclic compounds and methods of making and using same” (Zafgen, Inc., priority 2010, dated 2017).

Target: T1, recombinant human MetAP2 (Homo sapiens, UniProt P50579)
T1 construct: made in house; host or cells: Sf9 insect cells
Assay: Inhibition of recombinant human MetAP2 activity (MAS substrate, amino acid oxidase/Amplex red fluorescence)
Format: biochemical
Details: manganese enzyme, 30 minutes at 25° C., pH 7.5, 0.75 mM MAS substrate, 1% DMSO
Description: Compounds are tested for their capacity to inhibit recombinant human MetAP2 activity using the following assay.
Human recombinant MetAP2 expressed in Sf9 cells followed by affinity purification and EDTA treatment to remove endogenous active site cation was dialysed against MnCl2 to produce the manganese enzyme used in the assay. The assay was carried out for 30 minutes at 25° C. in 50 mM HEPES buffer containing 100 mM NaCl, pH 7.5 the presence of 0.75 mM Methionine-Alanine-Serine (MAS) substrate and 50 μg/mL amino acid oxidase using a dilution of purified MetAP2 giving >3-fold signal:noise. Cleavage of the substrate by MetAP2 and oxidation of free methionine by amino acid oxidase was detected and quantified using fluorescence generated by Amplex red (10-acetyl-3,7-dihydroxyphenoxazine) in combination with horseradish peroxidase which detects H2O2 released during the oxidation step. The fluorescent signal was detected using a multiwell fluorimeter. Compounds were diluted in DMSO prior to addition to assay buffer, the final DMSO concentration in the assay being 1%.
The IC50 is defined as the concentration at which a given compound achieves 50% inhibition of control. IC50 values are calculated using the XLfit software package (version 2.0.5).

T1 sequence (P50579 whole entry): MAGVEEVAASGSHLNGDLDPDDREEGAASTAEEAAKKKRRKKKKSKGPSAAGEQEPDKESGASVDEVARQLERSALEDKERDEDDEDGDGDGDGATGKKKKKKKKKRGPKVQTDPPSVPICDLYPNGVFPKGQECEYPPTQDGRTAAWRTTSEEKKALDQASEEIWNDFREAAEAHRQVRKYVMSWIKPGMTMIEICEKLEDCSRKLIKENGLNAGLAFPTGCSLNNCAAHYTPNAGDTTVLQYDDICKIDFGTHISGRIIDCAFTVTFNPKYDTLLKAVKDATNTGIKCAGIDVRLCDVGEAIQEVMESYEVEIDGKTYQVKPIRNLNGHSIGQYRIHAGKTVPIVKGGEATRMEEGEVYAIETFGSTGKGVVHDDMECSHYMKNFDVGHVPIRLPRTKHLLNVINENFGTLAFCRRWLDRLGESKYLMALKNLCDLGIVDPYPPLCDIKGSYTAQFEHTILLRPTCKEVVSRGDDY

IC50 [nM]	SMILES
< 100	CCN(CC)C/C=C\c1cc(F)ccc1S(=O)(=O)Cc1ccc2c(c1C(=O)O)OC(C)c1occc1-2 (racemic) [Example 15]
< 100	CCN(CC)C/C=C\c1cc(F)ccc1S(=O)(=O)Cc1ccc2c(c1C(=O)O)OC(C)c1occc1-2 (single isomer, unassigned) [Example 18A, 7-[2-((Z)-3-diethylaminoprop-1-enyl)-4-fluorobenzenesulfonylmethyl]-4-methyl-4H-furo[2,3-c]chromene-6-carboxylic Acid]
100 to 1000	CCN(CC)C/C=C\c1cc(F)ccc1S(=O)(=O)Cc1ccc2c(c1C(=O)O)OC(C)c1occc1-2 (single isomer, unassigned) [Example 18B, 7-[2-((Z)-3-diethylaminoprop-1-enyl)-4-fluorobenzenesulfonylmethyl]-4-methyl-4H-furo[2,3-c]chromene-6-carboxylic Acid]
< 100	C[C@H]1Oc2c(ccc(CS(=O)(=O)c3ccccc3)c2C(=O)O)-c2ccoc21 (stereo in doubt) [Example 6, 7-(Benzenesulfonylmethyl)-4-methyl-4H-furo[2,3-c]chromene-6-carboxylic Acid]
< 100	CCN(CC)C/C=C\c1cc(F)ccc1S(=O)(=O)Nc1ccc2c(c1C(=O)O)OCc1occc1-2 [Example 1, 7-[2-((Z)-3-Diethylaminoprop-1-enyl)-4-fluorobenzenesulfonylamino]-4H-furo[2,3-c]chromene-6-carboxylic Acid]
< 100	O=C(O)c1c(CS(=O)(=O)c2ccccc2)ccc2c1OCc1occc1-2 [Example 2, 7-(Benzenesulfonylmethyl)-4H-furo[2,3-c]chromene-6-carboxylic Acid]
100 to 1000	O=C(O)c1c(CS(=O)(=O)c2ccccc2)ccc2c1OCCc1occc1-2 [Example 3, 8-(Benzenesulfonylmethyl)-4,5-dihydro-3,6-dioxabenzo[e]azulene-7-carboxylic Acid]
100 to 1000	O=C(O)c1c(CS(=O)(=O)c2ccccc2)ccc2c1ncc1occc12 [Example 4, 7-(Benzenesulfonylmethyl)-furo[2,3-c]quinoline-6-carboxylic Acid]
100 to 1000	O=C(O)c1c(CS(=O)(=O)c2ccccc2)ccc2c1oc(=O)c1occc12 [Example 5, 7-(Benzenesulfonylmethyl)-4-oxo-4H-furo[2,3-c]chromene-6-carboxylic Acid]
< 100	CCN(CC)C/C=C\c1cc(F)ccc1S(=O)(=O)Nc1ccc2c(c1C(=O)O)OCCc1occc1-2 [Example 7, 8-[2-((Z)-3-Diethylaminoprop-1-enyl)-4-fluorobenzenesulfonylamino]-4,5-dihydro-3,6-dioxabenzo[e]azulene-7-carboxylic Acid]
< 100	CCN(CC)C/C=C\c1cc(F)ccc1S(=O)(=O)Nc1ccc2c(ncc3occc32)c1C(=O)O [Example 8, 7-[2-((Z)-3-Diethylaminoprop-1-enyl)-4-fluorobenzenesulfonylamino]-furo[2,3-c]quinoline-6-carboxylic Acid]
< 100	CCN(CC)CCCc1cc(F)ccc1S(=O)(=O)Nc1ccc2c(c1C(=O)O)OCc1occc1-2 [Example 9, 7-[2-(3-Diethylaminopropyl)-4-fluorobenzenesulfonylamino]-4H-furo[2,3-c]chromene-6-carboxylic Acid]
< 100	CCNC/C=C\c1cc(F)ccc1S(=O)(=O)Nc1ccc2c(c1C(=O)O)OCc1occc1-2 [Example 10, 7-[2-((Z)-3-Ethylaminoprop-1-enyl)-4-fluorobenzenesulfonylamino]-4H-furo[2,3-c]chromene-6-carboxylic Acid]
< 100	CCN(CC)CCCc1cc(F)ccc1S(=O)(=O)Nc1ccc2c(c1C(=O)O)OCCc1occc1-2 [Example 11, 8-[2-(3-Diethylaminopropyl)-4-fluorobenzenesulfonylamino]-4,5-dihydro-3,6-dioxabenzo[e]azulene-7-carboxylic Acid]
< 100	O=C(O)c1c(NS(=O)(=O)c2ccc(F)cc2/C=C\CN2CCOCC2)ccc2c1OCc1occc1-2 [Example 12, 7-{4-Fluoro-2-[(Z)-3-(morpholin-4-yl)prop-1-enyl]benzenesulfonylamino}-4H-furo[2,3-c]chromene-6-carboxylic Acid]
< 100	O=C(O)c1c(NS(=O)(=O)c2ccc(F)cc2/C=C\CN2CCCC2)ccc2c1OCc1occc1-2 [Example 13, 7-{4-Fluoro-2-[(Z)-3-(pyrrolidin-1-yl)prop-1-enyl]benzenesulfonylamino}-4H-furo[2,3-c]chromene-6-carboxylic Acid]
< 100	CCN(CC)C/C=C\c1cc(F)ccc1S(=O)(=O)Nc1ccc2c(oc(=O)c3occc32)c1C(=O)O [Example 14]
< 100	CCN(CC)CCCc1cc(F)ccc1S(=O)(=O)Nc1ccc2c(ncc3occc32)c1C(=O)O [Example 16, 7-[2-(3-Diethylaminopropyl)-4-fluorobenzenesulfonylamino]-furo[2,3-c]quinoline-6-carboxylic Acid]
< 100	CCN(CC)C/C=C\c1cc(F)ccc1S(=O)(=O)Nc1ccc2c(c1C(=O)O)OCc1cnsc1-2 [Example 17, 7-[2-((Z)-3-Diethylaminoprop-1-enyl)-4-fluorobenzenesulfonylamino]-4H-chromeno[3,4-d]isothiazole-6-carboxylic Acid]
< 100	CCN(CC)C/C=C\c1ccccc1S(=O)(=O)Nc1ccc2c(c1C(=O)O)OCc1occc1-2 [Example 19]
< 100	O=C(O)c1c(NS(=O)(=O)c2ccc(F)cc2/C=C\CN2CC[C@@H](O)C2)ccc2c1OCc1occc1-2 [Example 20, 7-{4-Fluoro-2-[(Z)-3-((R)-3-hydroxypyrrolidin-1-yl)-prop-1-enyl]-benzenesulfonylamino}-4H-furo[2,3-c]chromene-6-carboxylic Acid]
< 100	O=C(O)c1c(NS(=O)(=O)c2ccc(F)cc2/C=C\CN2CC[C@H](O)C2)ccc2c1OCc1occc1-2 [Example 21, 7-{4-Fluoro-2-[(Z)-3-((S)-3-hydroxypyrrolidin-1-yl)-prop-1-enyl]-benzenesulfonylamino}-4H-furo[2,3-c]chromene-6-carboxylic Acid]
< 100	CCN(CC)C/C=C\c1cc(F)ccc1S(=O)(=O)Nc1ccc2c([nH]c(=O)c3occc32)c1C(=O)O [Example 22, 7-[2-((Z)-3-Diethylaminoprop-1-enyl)-4-fluorobenzenesulfonylamino]-4-oxo-4,5-dihydrofuro[2,3-c]quinoline-6-carboxylic Acid]
< 100	O=C(O)c1c(NS(=O)(=O)c2ccc(F)cc2/C=C\CN2CCC2)ccc2c1OCc1occc1-2 [Example 23, 7-{2-[(Z)-3-(Azetidin-1-yl)prop-1-enyl]-4-fluorobenzenesulfonyl-amino}-4H-furo[2,3-c]chromene-6-carboxylic Acid]
< 100	O=C(O)c1c(NS(=O)(=O)c2ccc(F)cc2/C=C\CN2CC(O)C2)ccc2c1OCc1occc1-2 [Example 24, 7-{4-Fluoro-2-[(Z)-3-(3-hydroxyazetidin-1-yl)-prop-1-enyl]-benzenesulfonylamino}-4H-furo[2,3-c]chromene-6-carboxylic Acid]
< 100	CCN(CC)C/C=C\c1cc(F)ccc1S(=O)(=O)Nc1ccc2c(c1C(=O)O)OCc1occ(F)c1-2 [Example 25, 7-[2-((Z)-3-Diethylaminoprop-1-enyl)-4-fluorobenzenesulfonylamino]-1-fluoro-4H-furo[2,3-c]chromene-6-carboxylic Acid]
< 100	CCN(CC)C/C=C/c1cc(F)ccc1S(=O)(=O)Nc1ccc2c(c1C(=O)O)OCc1occc1-2 [Example 26, 7-[2-((E)-3-Diethylaminoprop-1-enyl)-4-fluorobenzenesulfonylamino]-4H-furo[2,3-c]chromene-6-carboxylic Acid]
